In ChEMBL document CHEMBL1201862, “PubChem BioAssay data set” (2004):
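Values below derive from 48-hour exposures of cells grown in 96-well plates, with endpoints linearly interpolated between the two concentrations bracketing the appropriate inhibition level. GI50 marks 50% less growth.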 Calls of active or inactive are those of the source. Rule as the data show it: active = GI50 up to about 1.1 µM and inactive = higher.

Key:
Test in all cases: inhibition of tumour cell growth, NCI panel, 48 h
[1] = test system: HOP-62
[2] = test system: RXF 393
[3] = test system: NCI-H23
[4] = test system: SN12C
[5] = test system: CAKI-1
[6] = test system: MDA-N
[7] = test system: HCT-116
[8] = test system: TK-10
[9] = test system: SK-OV-3
[10] = test system: 786-0
[11] = test system: OVCAR-8
[12] = test system: SF-295
[13] = test system: RPMI-8226
[14] = test system: K562
[15] = test system: SR
[16] = test system: IGROV-1
[17] = test system: NCI/ADR-RES
[18] = test system: MDA-MB-435
[19] = test system: NCI-H226
[20] = test system: SF-539

Measured: GI50

CC(=O)Nc1c(C)cc(OCC(=O)O)cc1C
inactive: [1] > 100 µM | [2] > 100 µM | [3] > 100 µM | [4] > 100 µM | [5] > 100 µM | [6] > 100 µM | [7] > 100 µM | [8] > 100 µM | [9] > 100 µM | [10] > 100 µM | [11] > 100 µM | [12] > 100 µM | [13] > 100 µM | [14] > 100 µM | [15] > 100 µM | [16] > 100 µM | [17] > 100 µM | [18] > 100 µM | [19] > 100 µM

CC(C)C(=O)NCC[C@@H](CNC(=O)OC(C)(C)C)NC(=O)OC(C)(C)C
inactive: [1] > 100 µM | [2] > 100 µM | [3] > 100 µM | [4] > 100 µM | [5] > 100 µM | [6] > 100 µM | [7] > 100 µM | [8] > 100 µM | [9] > 100 µM | [10] > 100 µM | [11] > 100 µM | [12] > 100 µM | [20] > 100 µM | [14] > 100 µM | [15] > 100 µM | [16] > 100 µM | [17] > 100 µM | [18] > 100 µM | [19] > 100 µM

C1=Cc2nccc3cc4c(c(c23)N1)OCO4
inactive: [1] 7.62 µM | [2] 1.64 µM | [3] 6.92 µM | [4] 4.89 µM | [5] 8.99 µM | [6] 8.02 µM | [7] 3.08 µM | [8] 14.7 µM | [9] 5.92 µM | [10] 4.03 µM | [11] 3.93 µM | [12] 3.36 µM | [13] 4.53 µM | [14] 3.17 µM | [15] 1.28 µM | [16] 2.56 µM | [17] 12.2 µM | [18] 12.7 µM | [19] 11.4 µM

CCCCC1(NN=C2CCCCC2)C(=O)N(c2ccccc2)N(c2ccccc2)C1=O
inactive: [1] > 100 µM | [2] > 100 µM | [3] > 100 µM | [4] > 100 µM | [5] > 100 µM | [6] > 100 µM | [7] > 100 µM | [8] > 100 µM | [9] > 100 µM | [10] > 100 µM | [11] > 100 µM | [12] > 100 µM | [13] 62.1 µM | [20] > 100 µM | [14] 30 µM | [15] 17.3 µM | [16] > 100 µM | [17] > 100 µM | [18] > 100 µM

NNC(=O)C(O)C(O)C(=O)NN (centres undefined)
inactive: [1] > 100 µM | [2] > 100 µM | [3] > 100 µM | [4] > 100 µM | [5] > 100 µM | [6] > 100 µM | [7] 73.3 µM | [8] > 100 µM | [9] > 100 µM | [10] 98.4 µM | [11] > 100 µM | [12] > 100 µM | [13] > 100 µM | [14] 36.1 µM | [15] 57.5 µM | [16] > 100 µM | [17] > 100 µM | [18] > 100 µM | [19] > 100 µM

COc1cc2ccnc3c2c(c1OC)N(C)C=C3
inactive: [1] 28.3 µM | [2] 25.1 µM | [3] 19.4 µM | [4] 30.4 µM | [5] 21.3 µM | [6] 19.1 µM | [7] 11 µM | [8] 35.3 µM | [9] 16.5 µM | [10] 17.2 µM | [11] 26.5 µM | [12] 20.2 µM | [13] 24.4 µM | [14] 21.1 µM | [15] 21.3 µM | [17] 24.3 µM | [18] 31.5 µM | [19] 21.2 µM

CSCCCNC(=O)[C@H](CSC)NC(=O)c1csc(CCNC(=O)[C@@H](NSc2ccccc2[N+](=O)[O-])C(C)O)n1 (some centres undefined)
inactive: [1] > 100 µM | [2] > 100 µM | [3] > 100 µM | [4] > 100 µM | [5] > 100 µM | [6] > 100 µM | [7] > 100 µM | [8] > 100 µM | [9] > 100 µM | [10] > 100 µM | [11] > 100 µM | [12] > 100 µM | [20] > 100 µM | [14] > 100 µM | [15] > 100 µM | [16] > 100 µM | [17] > 100 µM | [18] > 100 µM | [19] > 100 µM

CC(C)(C)OC(=O)NC(Cc1ccc(OCc2ccccc2)cn1)C(=O)N1CCSCC1 (centres undefined)
inactive: [1] > 100 µM | [2] 33.3 µM | [3] 28.6 µM | [4] 44.6 µM | [5] 73.3 µM | [6] 40.8 µM | [7] 48.6 µM | [8] 47.3 µM | [9] 86.3 µM | [10] 57.9 µM | [11] 40.1 µM | [12] 37.2 µM | [13] 21.7 µM | [20] 49 µM | [14] 31.7 µM | [15] 27 µM | [16] 75.9 µM | [17] 27.7 µM | [18] 28.6 µM

CC1=C/C(=N\NS(=O)(=O)c2ccc([N+](=O)[O-])cc2)CC(C)(C)C1
inactive: [1] > 100 µM | [2] > 100 µM | [3] 92.9 µM | [4] 73.5 µM | [5] > 100 µM | [6] > 100 µM | [7] 84.3 µM | [8] > 100 µM | [9] > 100 µM | [10] > 100 µM | [11] > 100 µM | [12] > 100 µM | [13] > 100 µM | [20] > 100 µM | [14] 62.1 µM | [15] 79.6 µM | [16] 57.5 µM | [17] 93.5 µM | [18] > 100 µM

Cc1cccc(NC(=O)/C=C/c2ccc([N+](=O)[O-])cc2)c1
inactive: [1] 16.7 µM | [2] 34 µM | [3] 16.4 µM | [4] > 41.2 µM | [5] > 39.3 µM | [6] > 30.7 µM | [7] > 36.9 µM | [8] > 41.5 µM | [9] > 46.5 µM | [10] > 34.6 µM | [11] > 37.2 µM | [12] 29 µM | [20] > 29.8 µM | [14] > 29.4 µM | [15] 11.7 µM | [16] 18.5 µM | [17] 29.8 µM | [18] > 36.6 µM | [19] > 46.7 µM
